Data on two compounds can be found in patent US20200326355A1, “Methods and Systems to Measure Cannabidiol (CBD)” (Laboratory Corporation of America Holdings, priority 2019, published 2020).

A short description of this series: LC-MS/MS measurement of hydrolyzed cannabinoid metabolites in urine of donors known to be CBD users. The conditions noted are these: urine of seven known CBD users abstaining from marijuana.

On to `CCCCCc1cc(O)c2c(c1)OC(C)(C)[C@@H]1CCC(C)=C[C@@H]21` [THC, Tetrahydrocannabinol], for which the “Parent THC detection in donated samples” value (16 samples) is reported as “not detected”.
With `CCCCCc1cc(O)c2c(c1)OC(C)(C)[C@@H]1CCC(C(=O)O)=C[C@@H]21` [COO-THC, 11-carboxy Δ9-THC], the “carboxy-THC level in donated samples” value (13 of 16 samples detectible, all but one below the bound) is “less than 15 ng/mL”.
